Experimental data as given in patent publication US4298613A, “Agricultural heterocyclic sulfenamides” (E. I. Du Pont de Nemours and Company, priority 1980, dated 1981).

Legend:
Helminthosporium oryzae = experiment: Control of rice Helminthosporium in a seed treatment test (Example 11); details: 1.3 g per kilogram of seed, 18 days, rating based on percent germination
Description: Rice seed infected with Helminthosporium oryzae are treated with compounds of this invention at a rate of 1.3 g per kilogram of seed. This is accomplished by soaking infected seed for 1 minute in a suspension of the indicated compound dissolved in a solution containing 4% glycerine, 4% water, 0.02% Tween®20*, and 92% acetone. Treated seeds are placed on moist blotters and enclosed in plastic bags for 18 days at which time disease ratings are made based on percent germination.
*Tween®20 is a trademark of ICI Americas, Inc. and consists of polyoxytheylene (20) sorbitan monolaurate.

Rhizoctonia solani = Rhizoctonia solani control on cotton, simulated in-the-row soil application (Example 12); assay type: in vivo; details: 15 kg/ha, 8 days
From the text: Rhizoctonia solani-infested soil was placed in a 900 cc cup. Compounds of this invention were mixed at a rate of 15 kg/ha in a section 2" wide×2" deep×4" long to simulate an in-the-row application. Five cotton seeds were planted in the treated soil. After 8 days, the cotton plants were removed and rated for disease control.

Venturia inaequalis [1] = experiment: Control of apple scab in a residual wash-off test (Example 14); assay type: in vivo; details: 20 ppm, apple seedlings, 1/2 inch simulated rainfall, incubated 10-12 days
Description: (§1) Compounds of this invention are dissolved in acetone in an amount equal to 6% of the final volume and then suspended at a concentration of 20 ppm in purified water containing 25 ppm of the surfactant Alkanol® XC (sodium alkyl naphthalene sulfonate). This suspension is sprayed to the point of run-off on apple seedlings. The following day, 1/2 inch of simulated rainfall is applied to the foliage of the plants. When the foliage is dry, the plants are inoculated with a spore suspension of the fungus Venturia inaequalis and incubated in a growth room for 10-12 days. Disease ratings are then made. […] Phytotoxicity in the form of foliar burn was observed on some of the plants in association with disease control.

Erysiphe cichoracearum [2] = experiment: Control of cucumber powdery mildew in a photostability test (Example 18); assay type: in vivo; details: 20 ppm, cucumber seedlings, 3500 foot candles xenon arc 16 hours, incubated 7 days
Description: (§2) Compounds of this invention are dissolved in acetone in an amount equal to 6% of the final volume and then suspended at a concentration of 20 ppm in purified water containing 25 ppm of the surfactant Alkanol® XC (sodium alkyl naphthalene sulfonate). This suspension is sprayed to the point of run-off in cucumber seedlings. When the foliage is dry, the plants are exposed to 3500 foot candles of light from a xenon arc source for a period of 16 hours. This light source approximates the spectrum of natural sunlight, and is used to assess photostability of the compounds of this invention on plant foliage. The following day, the plants are inoculated with a spore suspension of the fungus Erysiphe cichoracearum and incubated in a growth room for 7 days. Disease ratings are then made.

Erysiphe cichoracearum [3] = experiment: Control of cucumber powdery mildew in a residual wash-off test (Example 17); assay type: in vivo; details: 20 ppm, cucumber seedlings, 1/2 inch simulated rainfall, incubated 7 days
Description: Compounds of this invention are dissolved in acetone in an amount equal to 6% of the final volume and then suspended at a concentration of 20 ppm in purified water containing 25 ppm of the surfactant Alkanol® XC (sodium alkyl naphthalene sulfonate). This suspension is sprayed to the point of run-off on cucumber seedlings. The following day, 1/2 inch of simulated rainfall is applied to the foliage of the plants. When the foliage is dry, the plants are inoculated with a spore suspension of the fungus Erysiphe cichoracearum and incubated in a growth room for 7 days. Disease ratings are then made.

Venturia inaequalis [4] = experiment: Control of apple scab in a preventive test (Example 13); assay type: in vivo; details: 20 ppm, apple seedlings, incubated 10-12 days
Description: as §1, with “day,” for “day, 1/2 inch of simulated rainfall is applied to the foliage of the plants. When the foliage is dry,”

[5] = system: Puccinia graminis var. tritici; assay type: in vivo; details: 20 ppm, wheat seedlings, 1/2 inch simulated rainfall, 24 hours humidity chamber then 7 days
Venturia inaequalis [6] = experiment: Control of apple scab in a photostability test (Example 15); assay type: in vivo; details: 20 ppm, apple seedlings, 3500 foot candles xenon arc 16 hours, incubated 10-12 days
Description: as §2, with “on apple” for “in cucumber”, “Venturia inaequalis” for “Erysiphe cichoracearum”, “10-12” for “7”, “made. As shown in the following table, most of the compounds of this invention provided good disease control as the treated plants had fewer apple scab lesions in contrast to untreated plants which were covered with scab lesions. Phytotoxicity in the form of foliar burn was observed on some of the plants in association with disease control.” for “made.”

[7] = system: Puccinia graminis var. tritici; assay type: in vivo; details: 20 ppm, wheat seedlings, 3500 foot candles xenon arc 16 hours, 24 hours humidity chamber then 7 days
Phytophthora infestans = details: 5 ppm, tomato seedlings, incubated 4 days
[8] = system: Puccinia graminis var. tritici; assay type: in vivo; details: 20 ppm, wheat seedlings, 24 hours humidity chamber at 20° C. then 7 days
Erysiphe cichoracearum [9] = experiment: Control of cucumber powdery mildew in a preventive test (Example 16); assay type: in vivo; details: 20 ppm, cucumber seedlings, incubated 7 days
Description: Compounds of this invention are dissolved in acetone in an amount equal to 6% of the final volume and then suspended at a concentration of 20 ppm in purified water containing 25 ppm of the surfactant Alkanol® XC (sodium alkyl naphthalane sulfonate). This suspension is sprayed to the point of run-off on cucumber seedlings. The following day, the plants are inoculated with a spore suspension of the fungus Erysiphe cichoracearum and incubated in a growth room for 7 days. Disease ratings are then made.

house fly adults = experiment: House fly adult mortality (Example 10); assay type: in vivo, Musca domestica (house fly); details: concentration .01 (unit not given), acetone dispersion, 1 day, 25°±2° C., 50% RH
Description: Twenty-five house fly adults are secured in screened stainless steel ring cages and treated with acetone dispersions of N-[2-chloro-5-(trifluoromethyl)-phenyl]-N-[2,4-dinitro-6-(trifluoromethyl)phenyl]-3-nitro-2-pyridinesulfenamide at the indicated concentrations. The stock dispersion is prepared by dissolving appropriately weighed quantities of active ingredient in predetermined quantities of acetone. Further diluting with acetone yields the desired concentrations. After treating, the units are kept in a room maintained at 25°±2° C., 50% RH. Results are recorded at the end of 1 day.

two spotted mites = experiment: Two-spotted mite mortality on red kidney bean plants (Example 9); assay type: in vivo; details: Tetranychus urticae, 48 h, read-out: % Mortality (2 days)
Description: Test units consisted of plant pots containing two red kidney bean plants in the two-leaf stage per pot. The plants were infested with two spotted mites and sprayed to run-off with dispersions of N-[2-chloro-5-(trifluoromethyl)phenyl]-N-[2,4-dinitro-6-(trifluoromethyl)phenyl]-3-nitro-2-pyridinesulfenamide at the indicated concentrations. Dispersions were made by dissolving weighed quantities of the active ingredients in 10 ml of acetone and then diluting to volume with water containing 1:3000 of a surfactant, DuPonol® (a tradename of E. I. du Pont de Nemours & Co. for sodium alcohol sulfonate). Mortality was evaluated two days after spraying.

| Compound | % Control of rice Helminthosporium in a seed treatment test (Helminthosporium oryzae) [%] | % Rhizoctonia solani control (Rhizoctonia solani) [%] | % Control of Apple Scab in a Residual Wash-Off Test (Venturia inaequalis [1]) [%] | % Control Cucumber Powdery Mildew in a Photostability Test (Erysiphe cichoracearum [2]) [%] | % Control Cucumber Powdery Mildew in a Residual Wash-Off Test (Erysiphe cichoracearum [3]) [%] | % Control Apple Scab in a Preventive Test (Venturia inaequalis [4]) [%] | % Control Wheat Rust in a Residual Wash-off Test [5] [%] | % Control Apple Scab in a Photo-stability test (Venturia inaequalis [6]) [%] | % Control Wheat Rust in a Photostability Test [7] [%] | % Control Tomato Late Blight in a Preventive Test (Phytophthora infestans) [%] | % Control Wheat Rust in a Preventive Test [8] [%] | % Control Cucumber Powdery Mildew in a Preventive Test (Erysiphe cichoracearum [9]) [%] | % Mortality (house fly adults) [%] | mortality at 0.00025 % (two spotted mites) [%] |
| --- | --- | --- | --- | --- | --- | --- | --- | --- | --- | --- | --- | --- | --- | --- |
| O=[N+]([O-])c1cc([N+](=O)[O-])c(N(Sc2nc3ccccc3s2)c2cc(C(F)(F)F)ccc2Cl)c(C(F)(F)F)c1 [N-[2-chloro-5-(trifluoromethyl)phenyl]-N-[2,4-dinitro-6-(trifluoromethyl)phenyl]-2-benzothiazolesulfenamide] | 0 | 50 | 43 | 15 | 68 | 43 | 85 | 15 | 83 | 0 | 97 | 60 | – | – |
| O=[N+]([O-])c1cc([N+](=O)[O-])c(N(Sc2ncccc2[N+](=O)[O-])c2cc(C(F)(F)F)ccc2Cl)c(C(F)(F)F)c1 [N-[2-chloro-5-(trifluoromethyl)phenyl]-N-[2,4-dinitro-6-(trifluoromethyl)phenyl]-3-nitro-2-pyridinesulfenamide] | 90 | 100 | 100 | 94 | 90 | 100 | 98 | 70 | 95 | 70 | 80 | 100 | 90 | 100 |
